Data published in patent US6657106B2, “Removal of metals from contaminated substrates by plants” (ISIS Innovation Limited, priority 1995, dated 2003).
Entries after “also recorded” stand apart in the source; their conditions may differ.

Assays:
A. montanum [1] = test: Effect of foliar spraying with histidine on nickel tolerance; format: in vivo, Alyssum montanum; details: 20 mM histidine daily foliar spray with 0.01% Tween 20; 0.03 mM NiSO4 in root medium, 23 d; compared with 20 mM glutamine
Description: 6. […]. Thus, chelation of nickel by histidine is important both in the detoxification of the metal ion within the plant and in facilitating the transport of the metal from root to shoot, a characteristic of metal-hyperaccumulator plants generally (Baker, A. J. M. and Brooks, R. R. (1989) loc. cit.).
METHODS. Plants were germinated for 7 d on floating nets in 1 mM Ca(NO3)2 solution, subsequently transferred to 1.2-1 culture vessels (10 plants per vessel), and supplied with modified 0.1-strength Hoagland solution containing 0.1 mM KH2PO4, 0.5 mM KNO3, 0.4 mM Ca(NO3)2, 0.2 mM MgSO4, 0.01 mM FeNaEDTA, 0.01 mM H3BO3, 2 μM MnSO4, 0.2 μM ZnSO4, 0.2 μM CuSO4, 0.1 μM Na2MoO4 and 0.02 mM NaCl, supplemented with 0, 0.01, 0.03, 0.1, 0.3, 1, or 3 mM NiSO4. Plants were grown in a glasshouse at night temperatures between 14° C. and 18° C. and day temperatures between 22° C. and 34° C. with supplementary lighting provided by sodium-vapour lamps to give a 16-h photoperiod. Culture solutions were continuously aerated and exchanged every 7 d; solution pH remained in the range 5.6 to 6.0. Plants were harvested after 18 d, rinsed with distilled water, dried at 80° C. for 48 h and weighed. […].
FIG. 4. […] Values of biomass production and root elongation are for nickel-treated plants expressed as percentages of the respective controls grown in the absence of nickel. […]

A. montanum [2] = test: Effect of histidine in the root medium on xylem-sap exudation and nickel flux of excised roots; format: in vivo, Alyssum montanum; details: 0.3 mM NiSO4 with or without 0.3 mM histidine in root medium, exudate collected over 12 h
From the text: 6. […] That is, the application of relatively high concentrations of histidine exogenously is able to increase markedly both the nickel tolerance of an otherwise non-tolerant species of Alyssum (A. montanum) and to cause these plants to translocate nickel out of the root system at much higher rates. Thus, chelation of nickel by histidine is important both in the detoxification of the metal ion within the plant and in facilitating the transport of the metal from root to shoot, a characteristic of metal-hyperaccumulator plants generally (Baker, A. J. M. and Brooks, R. R. (1989) loc. cit.).
FIG. 4. Effect of exogenously applied histidine on nickel tolerance and xylem nickel translocation. a, Effect of foliar spraying with histidine (compared with glutamine) on nickel tolerance of A. montanum, assayed as the effect on whole-plant dry biomass production and root elongation. After germination for 7 d, plants were grown in modified Hoagland solution (FIG. 1) containing either 0 or 0.03 mM NiSO4 for 23 d and were sprayed daily with a solution of either 20 mM glutamine (Ni) or 20 mM histidine (His+Ni), both containing 0.01% (v/v) of the non-ionic detergent Tween 20. Values of biomass production and root elongation are for nickel-treated plants expressed as percentages of the respective controls grown in the absence of nickel. Each bar represents the mean of 9 plants+1 SE. […]

A. lesbiacum = test: as above; format: in vivo, Alyssum lesbiacum; details: 0.3 mM NiSO4 with or without 0.3 mM histidine in root medium, 12 h
From the text: FIG. 4. Effect of exogenously applied histidine on nickel tolerance and xylem nickel translocation. a, Effect of foliar spraying with histidine (compared with glutamine) on nickel tolerance of A. montanum, assayed as the effect on whole-plant dry biomass production and root elongation. […]. Values of biomass production and root elongation are for nickel-treated plants expressed as percentages of the respective controls grown in the absence of nickel. […]. Roots of 4-week-old plants were excised and exposed to a root medium of modified Hoagland solution supplemented with either 0.3 mM MgSO4 (controls) or 0.3 mM NiSO4, with or without 0.3 mM added histidine.

A. montanum [3] = details: histidine supplied to the root medium of excised roots; earlier symposium report; cited from earlier work
A. montanum [4] = details: histidine supplied to the xylem of excised shoots; cited from earlier work

For `N[C@@H](Cc1c[nH]cn1)C(=O)O` [histidine], the “root elongation (inhibitory effect of nickel)” value (A. montanum [1]) was “halving of the inhibitory effect; also recorded: significantly greater”, the “whole-plant dry biomass production” value (A. montanum [1]) was “more than twofold increase; also recorded: significantly greater” and the “flux of nickel through the xylem” value (A. montanum [2]) was “greatly increased; also recorded: significantly greater”. The “rate of xylem-sap exudation” value (A. montanum [2]) was “moderated the adverse effect of nickel; also recorded: significantly greater”, the nickel flux (A. lesbiacum) was “no significant differences” and the xylem exudation rate (A. lesbiacum) was “no significant differences”. The “toxicity of nickel (exudation of sap, flux of nickel through the root system)” value (A. montanum [3]) was “apparently reduced the toxicity of nickel” and the toxicity of nickel (A. montanum [4]) was “apparently reduced the toxicity of nickel”.
